Measurements from PMC11721313, “Sustained inhibition of CSF1R signaling augments antitumor immunity through inhibiting tumor-associated macrophages” (JCI Insight, 2025).

Experiments:
Assay type in all cases: cell-based
[1] = target: T1, CSF1R (colony-stimulating factor 1 receptor) (Mus musculus, UniProt P09581); assay: Western blot of M-CSF-induced CSF1R phosphorylation in murine BMDMs and RAW264 cells; inhibition persists after drug washout
T1 sequence (P09581 20-977): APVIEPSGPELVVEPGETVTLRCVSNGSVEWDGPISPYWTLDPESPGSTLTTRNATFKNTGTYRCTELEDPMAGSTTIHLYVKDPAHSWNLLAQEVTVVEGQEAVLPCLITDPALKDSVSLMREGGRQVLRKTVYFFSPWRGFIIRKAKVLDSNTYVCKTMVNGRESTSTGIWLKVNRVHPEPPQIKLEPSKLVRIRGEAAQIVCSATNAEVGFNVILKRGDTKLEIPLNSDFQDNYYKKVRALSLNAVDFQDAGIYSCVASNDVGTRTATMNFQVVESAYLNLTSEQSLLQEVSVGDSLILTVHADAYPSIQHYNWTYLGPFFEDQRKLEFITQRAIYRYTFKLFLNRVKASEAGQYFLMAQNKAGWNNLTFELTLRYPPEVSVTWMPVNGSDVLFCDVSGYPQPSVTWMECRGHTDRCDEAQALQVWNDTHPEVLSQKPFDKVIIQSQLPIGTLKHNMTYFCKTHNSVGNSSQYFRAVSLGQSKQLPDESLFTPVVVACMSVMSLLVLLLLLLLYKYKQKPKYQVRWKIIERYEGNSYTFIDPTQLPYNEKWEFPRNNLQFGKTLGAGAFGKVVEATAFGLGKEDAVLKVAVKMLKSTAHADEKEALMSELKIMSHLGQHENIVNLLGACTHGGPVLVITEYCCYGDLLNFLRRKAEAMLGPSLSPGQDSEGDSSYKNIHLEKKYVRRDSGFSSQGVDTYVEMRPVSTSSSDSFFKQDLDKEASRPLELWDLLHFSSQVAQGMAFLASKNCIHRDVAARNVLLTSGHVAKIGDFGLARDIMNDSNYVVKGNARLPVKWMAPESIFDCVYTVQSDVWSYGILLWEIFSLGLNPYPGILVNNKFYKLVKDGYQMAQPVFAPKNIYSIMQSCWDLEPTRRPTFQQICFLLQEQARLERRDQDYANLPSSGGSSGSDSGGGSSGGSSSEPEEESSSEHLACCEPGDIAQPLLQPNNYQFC

[2] = target: CSF1R (colony-stimulating factor 1 receptor) (Homo sapiens, UniProt P07333); assay: Western blot of M-CSF-induced CSF1R phosphorylation in human monocyte-derived macrophages
[3] = target: T1, CSF1R (colony-stimulating factor 1 receptor); assay: Western blot of CSF1R signaling in RAW264 cells with and without drug removal (reference CSF1R inhibitor)

Chain of CSF1R (colony-stimulating factor 1 receptor) (Homo sapiens, UniProt P07333) (P07333 20-972): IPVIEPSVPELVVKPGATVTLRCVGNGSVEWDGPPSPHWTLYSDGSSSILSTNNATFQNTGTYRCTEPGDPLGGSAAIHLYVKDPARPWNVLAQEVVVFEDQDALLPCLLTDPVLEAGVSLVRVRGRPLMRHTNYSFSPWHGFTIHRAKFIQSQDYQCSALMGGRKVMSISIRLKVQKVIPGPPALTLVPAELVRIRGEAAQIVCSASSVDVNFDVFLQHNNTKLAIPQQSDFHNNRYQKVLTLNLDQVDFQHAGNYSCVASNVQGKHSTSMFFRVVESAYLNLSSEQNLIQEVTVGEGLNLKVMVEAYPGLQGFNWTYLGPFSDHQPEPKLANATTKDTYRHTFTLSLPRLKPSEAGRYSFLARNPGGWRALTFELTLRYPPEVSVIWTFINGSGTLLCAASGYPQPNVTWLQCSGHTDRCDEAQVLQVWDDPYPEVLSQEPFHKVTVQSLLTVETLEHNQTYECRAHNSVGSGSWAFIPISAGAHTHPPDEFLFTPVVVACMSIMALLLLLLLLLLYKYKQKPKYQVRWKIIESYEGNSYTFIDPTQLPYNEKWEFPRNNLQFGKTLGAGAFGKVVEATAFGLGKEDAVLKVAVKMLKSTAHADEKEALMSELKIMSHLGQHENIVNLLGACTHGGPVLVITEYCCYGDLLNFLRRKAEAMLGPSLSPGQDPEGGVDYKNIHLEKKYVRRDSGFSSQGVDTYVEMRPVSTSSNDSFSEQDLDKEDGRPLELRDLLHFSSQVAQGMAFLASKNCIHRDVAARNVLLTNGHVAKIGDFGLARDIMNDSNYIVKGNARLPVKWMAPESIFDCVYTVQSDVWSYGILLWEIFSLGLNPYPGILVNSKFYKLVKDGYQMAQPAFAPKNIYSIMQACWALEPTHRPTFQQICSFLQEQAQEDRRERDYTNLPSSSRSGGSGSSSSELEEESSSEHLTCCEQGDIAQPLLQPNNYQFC

CCCNc1nc(Nc2ccc(C#N)cc2)ncc1C#CCCCNC(=O)[C@H](C)N(C)C(=O)/C=C/CN(C)C [FF-10101]
Western blot of M-CSF-induced CSF1R phosphorylation in murine BMDMs and RAW264 c [1]: upon reexposure to M-CSF was markedly inhibited by FF-10101 in a dose-dependent manner
Western blot of M-CSF-induced CSF1R phosphorylation in human monocyte-derived ma [2]: human monocyte-derived macrophages upon reexposure to M-CSF was markedly inhibited by FF-10101 in a dose-dependent manner

CNC(=O)c1cc(Oc2ccc3nc(N[C@@H]4CCCC[C@H]4O)sc3c2)ccn1 [BLZ945]
Western blot of CSF1R signaling in RAW264 cells with and without drug removal (r) [3]: the inhibitory activity of BLZ945, another CSF1R inhibitor with an IC50 comparable to that of FF-10101, decreased upon drug removal
